Consider 48 compounds from patent US10065950B2, “Substituted thiazoles as HIV integrase inhibitors” (Japan Tobacco Inc., priority 2010, dated 2018).

One may read the IC50 as the midpoint of a concentration-inhibition curve.

The assay addresses HIV-1 pNL4-3 integrase (Human immunodeficiency virus type 1 group M subtype B (isolate NY5) (HIV-1), UniProt P12497). The assay is described as follows: Determination of enzyme (HIV integrase) inhibitory activity. The note with it: calculated from inhibition rate (fluorescence). It counts as biochemical. The procedure:
The following explains evaluation methods of the HIV integrase inhibitory activity of the compound of the present invention.
A full-length gene sequence (Accession No.: M19921) of HIV-1 pNL4-3 integrase was inserted into restriction enzyme Nde I and Xho I sites of plasmid pET21a(+) (manufactured by Novagen) to construct an integrase expression vector pET21a-IN-Wild type.
Escherichia coli recombinant BL21(DE3) transformed with plasmid pET21a-IN-Wild type obtained in (i) was shake cultured at 30° C. in a liquid medium containing ampicillin. When the culture reached the logarithmic growth phase, isopropyl-β-D-thiogalactopyranoside was added to promote expression of integrase gene. The culture was continued for 5 hr to promote accumulation of the integrase protein. The recombinant E. coli was collected in pellets by centrifugal separation and preserved at −80° C.
This Escherichia coli was suspended in Lysis buffer (50 mM Tris-HCl (pH 7.6), 10 mM MgCl2, 5 mM DTT), and disrupted by repeating treatments of pressurization and depressurization, and insoluble fraction was collected by centrifugation at 4° C., 18,000 rpm for 60 min. This was suspended in Lysis buffer containing a protease inhibitor, […] and 10 mM CHAPS were added, and the mixture was stirred at 4° C. for 30 min. Water-soluble fraction was collected by centrifugation at 4° C., 9,000 rpm for 30 min. The obtained fraction was diluted with a column buffer (50 mM Tris-HCl (pH 7.6), 1 mM DTT, 10% Glycerol, 10 mM CHAPS) to 5-fold, and the mixture was applied to heparin column (HiPrep 16/10 Heparin FF column: manufactured by GE Healthcare Bio-Sciences). Using a column buffer containing 1M NaCl, a protein was eluted with 0-1M NaCl concentration gradient, and an eluted fraction containing an integrase protein was collected. The obtained fraction was diluted 5-fold with a column buffer (50 mM Tris-HCl (pH 7.6), 1 mM DTT, 10% Glycerol, 10 mM CHAPS), and the mixture was applied to cation exchange column (Mono-S column: manufactured by GE Healthcare Bio-Sciences). Using a column buffer containing 1M NaCl, a protein was eluted with 0-1M NaCl concentration gradient, and an eluted fraction containing an integrase protein was collected. The obtained fractions of the integrase protein were collected, and preserved at −80° C.
The following DNA synthesized by FASMAC was dissolved in TE buffer (10 mM Tris-hydrochloric acid (pH 8.0), 1 mM EDTA) and mixed with donor DNA, target DNA, and each complementary strand (+ and − strands) to 1 μM. The mixture was heated at 95° C. for 5 min, 80° C. for 10 min, 70° C. for 10 min, 60° C. for 10 min, 50° C. for 10 min and 40° C. for 10 min and kept at 25° C. to give a double stranded DNA, which was used for the test.
Donor DNA (+strand having biotin attached to the 5′ terminal)
Target DNA (+, − strands both having digoxigenin attached to the 3′ terminal)
The donor DNA was diluted with TE buffer to 20 nM, of which 50 μL was added to each well of streptavidin-coated black plate (manufactured by PIAS Corporation) and allowed to adsorb at 37° C. for 20 min. The plate was washed with phosphate buffer (Dulbecco's PBS, Sanko Junyaku Co., Ltd.) containing 0.1% Tween 20 and phosphate buffer. Then, an enzyme reaction mixture (70 μL), a test substance (10 μL) diluted with the enzyme reaction mixture and 0.75 μM integrase protein (10 μL) were added to each well and the mixture was reacted at 37° C. for 60 min. composition of enzyme reaction mixture: 30 mM MOPS (3-morpholinopropanesulfonic acid), 5 mM magnesium chloride, 3 mM DTT (dithiothreitol), 0.1 mg/mL BSA (bovine serum albumin), 5% glycerol, 10% DMSO (dimethyl sulfoxide), 0.01% Tween 20.
Then, 25 nM target DNA (10 μL) was added, and the mixture was reacted at 37° C. for 20 min and washed with phosphate buffer containing 0.1% Tween 20 to stop the reaction. […]

With `COCC1CN(CC(C)C)C(=O)c2c(O)c(=O)c(-c3nnc(Cc4ccc(F)cc4F)s3)cn21` (stereo not drawn) [Example 63], the IC50 was 8.3 nM.

For the compound `CC(C)N1C(=O)c2c(O)c(=O)c(-c3nnc(Cc4ccc(F)cc4F)s3)cn2CC1C#N` (stereo not drawn) [Example 64], the IC50 is 6.1 nM.

For the compound `CC(C)N1CC(CN2C(=O)c3ccccc3C2=O)n2cc(-c3ncc(Cc4ccc(F)cc4F)s3)c(=O)c(O)c2C1=O` (stereo not drawn) [Example 65], the concentration for half-maximal inhibition (IC50) is 13 nM.

Take `CC(C)N1CC(CN)n2cc(-c3ncc(Cc4ccc(F)cc4F)s3)c(=O)c(O)c2C1=O` (stereo not drawn) [Example 66]: the IC50 is 6.4 nM.

Consider `CC(=O)NCC1CN(C(C)C)C(=O)c2c(O)c(=O)c(-c3ncc(Cc4ccc(F)cc4F)s3)cn21` (stereo not drawn) [Example 67], for which the concentration for half-maximal inhibition (IC50) is 7.6 nM.

Consider `CCC(=O)NCC1CN(C(C)C)C(=O)c2c(O)c(=O)c(-c3ncc(Cc4ccc(F)cc4F)s3)cn21` (stereo not drawn) [Example 68], for which the IC50 is 9.8 nM.

Regarding `CC(C)C(=O)NCC1CN(C(C)C)C(=O)c2c(O)c(=O)c(-c3ncc(Cc4ccc(F)cc4F)s3)cn21` (stereo not drawn) [Example 69], the 50% inhibitory concentration (IC50) is 13 nM.

As for `CC1(C)Cn2cc(-c3nnc(Cc4ccc(F)cc4F)s3)c(=O)c(O)c2C(=O)N1C1CCOC1` (stereo not drawn) [Example 70], the 50% inhibitory concentration (IC50) is 8.9 nM.

Consider `CC(C)N1CC(CC(=O)NC2CC2)n2cc(-c3ncc(Cc4ccc(F)cc4F)s3)c(=O)c(O)c2C1=O` (stereo not drawn) [Example 71], for which the IC50 was 11 nM.

Turning to `CC(C)N1CC(CC(=O)N2CCOCC2)n2cc(-c3ncc(Cc4ccc(F)cc4F)s3)c(=O)c(O)c2C1=O` (stereo not drawn) [Example 72], the IC50 was 11 nM.

Consider `COCCN(C)C(=O)CC1CN(C(C)C)C(=O)c2c(O)c(=O)c(-c3ncc(Cc4ccc(F)cc4F)s3)cn21` (stereo not drawn) [Example 73], for which the IC50 was 7.7 nM.

On to `CC(C)N1C(=O)c2c(O)c(=O)c(-c3nnc(Cc4ccc(F)cc4F)s3)cn2CC1CC(=O)O` (stereo not drawn) [Example 74], for which the half-maximal inhibitory concentration (IC50) was 5.7 nM.

In the case of `CC(C)N1C(=O)c2c(O)c(=O)c(-c3nnc(Cc4ccc(F)cc4F)s3)cn2CC1CC(=O)N(C)C` (stereo not drawn) [Example 75], the IC50 is 9.1 nM.

For the compound `CCN(C)C(=O)CC1CN(C(C)C)C(=O)c2c(O)c(=O)c(-c3ncc(Cc4ccc(F)cc4F)s3)cn21` (stereo not drawn) [Example 76], the half-inhibitory concentration (IC50) is 8.3 nM.

In the case of `CCN(CC)C(=O)CC1CN(C(C)C)C(=O)c2c(O)c(=O)c(-c3ncc(Cc4ccc(F)cc4F)s3)cn21` (stereo not drawn) [Example 77], the 50% inhibitory concentration (IC50) is 11 nM.

As to `CC(C)N1CC(CNS(C)(=O)=O)n2cc(-c3ncc(Cc4ccc(F)cc4F)s3)c(=O)c(O)c2C1=O` (stereo not drawn) [Example 78], the IC50 is 8.9 nM.

For `CC(C)N1CC(C#N)n2cc(-c3ncc(Cc4ccc(F)cc4F)s3)c(=O)c(O)c2C1=O` (stereo not drawn) [Example 79], the half-inhibitory concentration (IC50) is 6.4 nM.

Regarding `CC(=O)N(C)CC1CN(C(C)C)C(=O)c2c(O)c(=O)c(-c3ncc(Cc4ccc(F)cc4F)s3)cn21` (stereo not drawn) [Example 80], the IC50 was 9.8 nM.

On to `CNC(=O)CC1Cn2cc(-c3nnc(Cc4ccc(F)cc4F)s3)c(=O)c(O)c2C(=O)N1C(C)C` (stereo not drawn) [Example 81], for which the 50% inhibitory concentration (IC50) was 7.5 nM.

Take `CC(C)N1C(=O)c2c(O)c(=O)c(-c3nnc(Cc4ccc(F)cc4F)s3)cn2CC1CC#N` (stereo not drawn) [Example 82]: the IC50 was 4.9 nM.

Turning to `COCCOC[C@@H]1Cn2cc(-c3nnc(Cc4ccc(F)cc4)s3)c(=O)c(O)c2C(=O)N1C(C)C` [Example 83], the half-maximal inhibitory concentration (IC50) is 7.1 nM.

Regarding `COCCOC[C@@H]1Cn2cc(-c3nnc(Cc4ccc(F)cc4)s3)c(=O)c(O)c2C(=O)N1C1CCC1` [Example 84], the IC50 is 11 nM.

For `COC[C@H]1CN(C(C)C)C(=O)c2c(O)c(=O)c(-c3nnc(Cc4ccc(F)cc4F)s3)cn21` [Example 85], the IC50 is 7.5 nM.

On to `COCCOC[C@H]1CN(C2CCC2)C(=O)c2c(O)c(=O)c(-c3nnc(Cc4ccc(F)cc4F)s3)cn21` [Example 86], for which the concentration for half-maximal inhibition (IC50) was 9.5 nM.

For the compound `COC[C@@H]1CN(C(C)C)C(=O)c2c(O)c(=O)c(-c3nnc(Cc4ccc(F)cc4F)s3)cn21` [Example 87], the half-maximal inhibitory concentration (IC50) was 7.7 nM.

As for `COC[C@@H]1CN(C(C)C)C(=O)c2c(O)c(=O)c(-c3nnc(Cc4ccc(F)cc4)s3)cn21` [Example 88], the half-inhibitory concentration (IC50) was 8.7 nM.

As to `CCN1C[C@@H](COC)n2cc(-c3nnc(Cc4ccc(F)cc4F)s3)c(=O)c(O)c2C1=O` [Example 89], the IC50 is 8 nM.

As to `CC(C)N1C(=O)c2c(O)c(=O)c(-c3nnc(Cc4ccc(F)cc4F)s3)cn2CC1CCO` (stereo not drawn) [Example 90], the IC50 was 6.7 nM.

On to `COC[C@H]1CN(C2CCC2)C(=O)c2c(O)c(=O)c(-c3nnc(Cc4ccc(F)cc4)s3)cn21` [Example 92], for which the concentration for half-maximal inhibition (IC50) is 8.7 nM.

As to `COC[C@@H]1Cn2cc(-c3nnc(Cc4ccc(F)cc4F)s3)c(=O)c(O)c2C(=O)N1C1CCC1` [Example 93], the IC50 was 7.8 nM.

Take `CC(C)N1CC(C)(C(=O)N2CCC2)n2cc(-c3ncc(Cc4ccc(F)cc4F)s3)c(=O)c(O)c2C1=O` (stereo not drawn) [Example 94]: the concentration for half-maximal inhibition (IC50) was 8.8 nM.

Take `COC[C@H]1Cn2cc(-c3nnc(Cc4ccc(F)cc4)s3)c(=O)c(O)c2C(=O)N1C(C)C` [Example 95]: the IC50 was 9.5 nM.

As for `COC[C@H]1Cn2cc(-c3nnc(Cc4ccc(F)cc4F)s3)c(=O)c(O)c2C(=O)N1C(C)C` [Example 96], the IC50 was 6.7 nM.

With `CCN1C[C@H](COC)n2cc(-c3nnc(Cc4ccc(F)cc4F)s3)c(=O)c(O)c2C1=O` [Example 97], the half-inhibitory concentration (IC50) was 6.6 nM.

For the compound `COC[C@H]1Cn2cc(-c3nnc(Cc4ccc(F)cc4F)s3)c(=O)c(O)c2C(=O)N1C1CCC1` [Example 98], the IC50 was 7.5 nM.

In the case of `COC[C@@H]1Cn2cc(-c3nnc(Cc4ccc(F)cc4F)s3)c(=O)c(O)c2C(=O)N1C(C)C` [Example 99], the 50% inhibitory concentration (IC50) was 6.1 nM.

Consider `CC(C)N1C(=O)c2c(O)c(=O)c(-c3nnc(Cc4ccc(F)cc4F)s3)cn2CC12CCOCC2` [Example 100], for which the half-inhibitory concentration (IC50) is 8.1 nM.

Turning to `CC(C)N1CC(CS(C)(=O)=O)n2cc(-c3ncc(Cc4ccc(F)cc4F)s3)c(=O)c(O)c2C1=O` (stereo not drawn) [Example 101], the IC50 was 6.4 nM.

With `CCN1C(=O)c2c(O)c(=O)c(-c3nnc(Cc4ccc(F)cc4F)s3)cn2C[C@H]1COC` [Example 102], the IC50 was 7.1 nM.

In the case of `COCC1(C)CN(C(C)C)C(=O)c2c(O)c(=O)c(-c3ncc(Cc4ccc(F)cc4)s3)cn21` (stereo not drawn) [Example 103], the 50% inhibitory concentration (IC50) was 18 nM.

With `CNC(=O)C1(C)CN(C(C)C)C(=O)c2c(O)c(=O)c(-c3ncc(Cc4ccc(F)cc4)s3)cn21` (stereo not drawn) [Example 104], the 50% inhibitory concentration (IC50) was 15 nM.

Consider `CCNC(=O)C1(C)CN(C(C)C)C(=O)c2c(O)c(=O)c(-c3ncc(Cc4ccc(F)cc4)s3)cn21` (stereo not drawn) [Example 105], for which the IC50 is 17 nM.

As for `CC(C)NC(=O)C1(C)CN(C(C)C)C(=O)c2c(O)c(=O)c(-c3ncc(Cc4ccc(F)cc4)s3)cn21` (stereo not drawn) [Example 106], the IC50 was 20 nM.

In the case of `CC(C)N1CC(C)(C(=O)N(C)C)n2cc(-c3ncc(Cc4ccc(F)cc4)s3)c(=O)c(O)c2C1=O` (stereo not drawn) [Example 107], the IC50 was 19 nM.

As for `CC(C)N1CC(C)(C(=O)N2CCCCC2)n2cc(-c3ncc(Cc4ccc(F)cc4)s3)c(=O)c(O)c2C1=O` (stereo not drawn) [Example 108], the half-inhibitory concentration (IC50) was 18 nM.

As to `CC(C)N1CC(C)(C(=O)N2CCCC2)n2cc(-c3ncc(Cc4ccc(F)cc4)s3)c(=O)c(O)c2C1=O` (stereo not drawn) [Example 109], the half-inhibitory concentration (IC50) is 21 nM.

Consider `COCCOCC1(C)CN(C(C)C)C(=O)c2c(O)c(=O)c(-c3ncc(Cc4ccc(F)cc4)s3)cn21` (stereo not drawn) [Example 110], for which the IC50 is 23 nM.

Consider `CC(C)N1CC(C)(CO)n2cc(-c3ncc(Cc4ccc(F)cc4)s3)c(=O)c(O)c2C1=O` (stereo not drawn) [Example 111], for which the 50% inhibitory concentration (IC50) is 20 nM.
